Assay results published in patent US20260130395A1, “Water Dispersible Botanical Compositions” (Aquila Black Limited, priority 2021, published 2026).

Assay: Stability of cannabinoid compounds and Vitamin E components in Beverage 2 (AB Red) by LCMSMS
Format: physicochemical
Experimental: The stability of the plant-derived cannabinoid compounds and Vitamin E components of the beverage stored 8° C. and at room temperature (21-25° C.) were monitored, over a period of 570 days via Liquid Chromatography-tandem Mass Spectrometry [LCMSMS, AGilent 6590, C18, 3×50 mm, 2.7 m (Agilent InfinityLab Poroshell 120 EC-C18), Electrospray Ionization detector]. The LCMSMS was calibrated for 0-50 ng/ml cannabinoids with the same resin material used in the preparation of the concentrates. At each time period, 100 ml of beverage was diluted with 10 ml of methanol and injected into the LCMSMS for analysis.

In the case of `CCCCCc1cc(O)c2c(c1)OC(C)(CCC=C(C)C)C=C2` (centres unmarked) [CBC, cannabichromene], the “Stability of Plant-Derived Cannabinoid Compounds in AB Red” value (from here on “Stability”) (stored at 8° C., 0 days) is reported as 0.290 µg/mL, the “Stability” value (stored at 8° C., 1 days) is reported as 0.289 µg/mL and the “Stability” value (stored at 8° C., 2 days) is reported as 0.292 µg/mL. For the same compound, the “Stability” value (stored at 8° C., 3 days) was 0.285 µg/mL, the “Stability” value (stored at 8° C., 5 days) was 0.286 µg/mL and the “Stability” value (stored at 8° C., 8 days) was 0.286 µg/mL. For the same compound, the “Stability” value (stored at 8° C., 9 days) was 0.288 µg/mL, the “Stability” value (stored at 8° C., 10 days) was 0.288 µg/mL and the “Stability” value (stored at 8° C., 11 days) was 0.284 µg/mL. The “Stability” value (stored at 8° C., 12 days) was 0.285 µg/mL, the “Stability” value (stored at 8° C., 15 days) was 0.292 µg/mL and the “Stability” value (stored at 8° C., 16 days) was 0.283 µg/mL. The “Stability” value (stored at 8° C., 17 days) was 0.282 µg/mL, the “Stability” value (stored at 8° C., 18 days) was 0.289 µg/mL and the “Stability” value (stored at 8° C., 19 days) was 0.287 µg/mL. The “Stability” value (stored at 8° C., 22 days) was 0.287 µg/mL, the “Stability” value (stored at 8° C., 23 days) was 0.287 µg/mL and the “Stability” value (stored at 8° C., 24 days) was 0.291 µg/mL. For the same compound, the “Stability” value (stored at 8° C., 25 days) was 0.287 µg/mL, the “Stability” value (stored at 8° C., 26 days) was 0.287 µg/mL and the “Stability” value (stored at 8° C., 29 days) was 0.284 µg/mL. For the same compound, the “Stability” value (stored at 8° C., 30 days) was 0.282 µg/mL, the “Stability” value (stored at 8° C., 60 days) was 0.278 µg/mL and the “Stability” value (stored at 8° C., 90 days) was 0.287 µg/mL. The “Stability” value (stored at 8° C., 120 days) was 0.289 µg/mL, the “Stability” value (stored at 8° C., 150 days) was 0.281 µg/mL and the “Stability” value (stored at 8° C., 180 days) was 0.285 µg/mL. The “Stability” value (stored at 8° C., 210 days) was 0.282 µg/mL, the “Stability” value (stored at 8° C., 240 days) was 0.280 µg/mL and the “Stability” value (stored at 8° C., 270 days) was 0.284 µg/mL. The “Stability” value (stored at 8° C., 300 days) was 0.280 µg/mL, the “Stability” value (stored at 8° C., 330 days) was 0.278 µg/mL and the “Stability” value (stored at 8° C., 360 days) was 0.282 µg/mL. For the same compound, the “Stability” value (stored at 8° C., 390 days) was 0.282 µg/mL, the “Stability” value (stored at 8° C., 420 days) was 0.277 µg/mL and the “Stability” value (stored at 8° C., 450 days) was 0.282 µg/mL. The “Stability” value (stored at 8° C., 480 days) was 0.274 µg/mL, the “Stability” value (stored at 8° C., 510 days) was 0.267 µg/mL and the “Stability” value (stored at 8° C., 540 days) was 0.271 µg/mL. For the same compound, the “Stability” value (stored at 8° C., 570 days) was 0.266 µg/mL, the “Stability” value (stored at 21-25° C., 0 days) was 0.29 µg/mL and the “Stability” value (stored at 21-25° C., 1 days) was 0.28 µg/mL. The “Stability” value (stored at 21-25° C., 2 days) was 0.28 µg/mL, the “Stability” value (stored at 21-25° C., 3 days) was 0.29 µg/mL and the “Stability” value (stored at 21-25° C., 5 days) was 0.28 µg/mL. For the same compound, the “Stability” value (stored at 21-25° C., 8 days) was 0.28 µg/mL, the “Stability” value (stored at 21-25° C., 9 days) was 0.28 µg/mL and the “Stability” value (stored at 21-25° C., 10 days) was 0.29 µg/mL. The “Stability” value (stored at 21-25° C., 11 days) was 0.29 µg/mL, the “Stability” value (stored at 21-25° C., 12 days) was 0.28 µg/mL and the “Stability” value (stored at 21-25° C., 15 days) was 0.28 µg/mL. The “Stability” value (stored at 21-25° C., 16 days) was 0.28 µg/mL, the “Stability” value (stored at 21-25° C., 17 days) was 0.28 µg/mL and the “Stability” value (stored at 21-25° C., 18 days) was 0.29 µg/mL. For the same compound, the “Stability” value (stored at 21-25° C., 19 days) was 0.29 µg/mL, the “Stability” value (stored at 21-25° C., 22 days) was 0.29 µg/mL and the “Stability” value (stored at 21-25° C., 23 days) was 0.28 µg/mL. The “Stability” value (stored at 21-25° C., 24 days) was 0.29 µg/mL, the “Stability” value (stored at 21-25° C., 25 days) was 0.28 µg/mL and the “Stability” value (stored at 21-25° C., 26 days) was 0.28 µg/mL. For the same compound, the “Stability” value (stored at 21-25° C., 29 days) was 0.29 µg/mL, the “Stability” value (stored at 21-25° C., 30 days) was 0.29 µg/mL and the “Stability” value (stored at 21-25° C., 60 days) was 0.29 µg/mL. For the same compound, the “Stability” value (stored at 21-25° C., 90 days) was 0.28 µg/mL, the “Stability” value (stored at 21-25° C., 120 days) was 0.29 µg/mL and the “Stability” value (stored at 21-25° C., 150 days) was 0.29 µg/mL. For the same compound, the “Stability” value (stored at 21-25° C., 180 days) was 0.28 µg/mL, the “Stability” value (stored at 21-25° C., 210 days) was 0.29 µg/mL and the “Stability” value (stored at 21-25° C., 240 days) was 0.28 µg/mL. The “Stability” value (stored at 21-25° C., 270 days) was 0.29 µg/mL, the “Stability” value (stored at 21-25° C., 300 days) was 0.29 µg/mL and the “Stability” value (stored at 21-25° C., 330 days) was 0.29 µg/mL. For the same compound, the “Stability” value (stored at 21-25° C., 360 days) was 0.28 µg/mL, the “Stability” value (stored at 21-25° C., 390 days) was 0.28 µg/mL and the “Stability” value (stored at 21-25° C., 420 days) was 0.28 µg/mL. For the same compound, the “Stability” value (stored at 21-25° C., 450 days) was 0.28 µg/mL, the “Stability” value (stored at 21-25° C., 480 days) was 0.28 µg/mL and the “Stability” value (stored at 21-25° C., 510 days) was 0.27 µg/mL. The “Stability” value (stored at 21-25° C., 540 days) was 0.28 µg/mL and the “Stability” value (stored at 21-25° C., 570 days) was 0.27 µg/mL.
